# Measurements: patent publication US20150051138A1, “INHIBITORS OF FURIN AND OTHER PRO-PROTEIN CONVERTASES” (Sanford-Burnham Medical Research Institute, priority 2012, published 2015)
# Target: T1, Furin (Homo sapiens, UniProt P09958)
# T1 construct: Purification of Soluble Furin; inferred from purification by Ni2+-chelating chromatography and imidazole elution; made in house; host or cells: MDCK cells (furin-overexpressing), secreted into culture medium
# Assay: Furin enzymatic assay, IC50 determination with Pyr-RTKR-AMC substrate
# Format: biochemical
# Details: furin 50 nM, Pyr-RTKR-AMC 25 μM, 30 min preincubation; read-out: IC50 against Furin
# Experimental: Furin-overexpressing MDCK cells were grown using 15 cm plates (Falcon) in DMEM/High modified synthetic media (Thermo Scientific) supplemented with Gentamicin (10 μg/ml). Each two days the medium was collected. Cells were replenished with fresh medium. To remove cell debris, the collected samples were spun at 3000×g and the supernatant fraction was filtered through a 0.22 μm filter (Corning) and then 100-fold concentrated using a Pellicon XL Biomax 10 concentrator (Millipore). Furin was isolated from the concentrated medium samples using Ni^2+-chelating chromatography on a HiTrap Chelating HP 1.6×2.5 cm column (Amersham Biosciences) equilibrated with 20 mM Tris-HCl buffer, pH 8.0, containing 1M NaCl. To remove the impurities, the column was washed with 50 ml of the same buffer containing 25 mM imidazole. Furin was eluted using 500 mM imidazole. The purified fractions were pooled, concentrated using an Amicon Ultra 50K-cutoff membrane (Millipore), dialyzed against PBS and stored at −80° C. According to SDS-PAGE followed by Coomassie staining of the gel, Western blotting and enzyme activity assays the purity of the isolated furin samples was >95%. The typical yield of purified furin was 0.8-1 mg/liter of cell culture medium. Specific activity of purified furin was >120 units where one unit is the amount of furin that will cleave 1.0 pmol methyl-coumaryl-7-amide (AMC) from the Pyr-Arg-Thr-Lys-Arg-methyl-coumaryl-7-amide (Pyr-RTKR-AMC) substrate per min at ambient temperature, pH 7.5.
# Furin activity was measured in triplicate in wells of a 96-well plate in 0.2 ml 50 mM HEPES, pH 7.5, containing 1 mM CaCl2, 0.005% Brij-35 and 20% glycerol. Pyr-RTKR-AMC (25 μM) was used as a substrate. The concentration of furin in the reactions was 50 nM. The steady-state rate of substrate hydrolysis was monitored continuously (λex=360 nm and λem=465 nm) at 37° C. using a Spectramax Gemini EM fluorescent spectrophotometer (Molecular Devices).
# Furin (50 nM) was preincubated for 30 min at 20° C. with increasing concentrations of the individual compounds in 0.1 ml of 50 mM HEPES, pH 7.5, containing 1 mM CaCl2, 20% glycerol and 0.005% Brij 35. The Pyr-RTKR-AMC substrate ([…]) was added in 0.1 ml of the same buffer. Reaction velocity was monitored continuously at λex=360 nm and λem=465 nm on a Spectramax Gemini EM fluorescence spectrophotometer. All assays were performed in triplicate in wells of a 96-well plate. IC50 values were calculated by determining the concentrations of the compounds needed to inhibit 50% of the furin activity against Pyr-RTKR-AMC substrate. GraphPad Prism was used as fitting software.
# T1 sequence (P09958 108-715 limits assumed): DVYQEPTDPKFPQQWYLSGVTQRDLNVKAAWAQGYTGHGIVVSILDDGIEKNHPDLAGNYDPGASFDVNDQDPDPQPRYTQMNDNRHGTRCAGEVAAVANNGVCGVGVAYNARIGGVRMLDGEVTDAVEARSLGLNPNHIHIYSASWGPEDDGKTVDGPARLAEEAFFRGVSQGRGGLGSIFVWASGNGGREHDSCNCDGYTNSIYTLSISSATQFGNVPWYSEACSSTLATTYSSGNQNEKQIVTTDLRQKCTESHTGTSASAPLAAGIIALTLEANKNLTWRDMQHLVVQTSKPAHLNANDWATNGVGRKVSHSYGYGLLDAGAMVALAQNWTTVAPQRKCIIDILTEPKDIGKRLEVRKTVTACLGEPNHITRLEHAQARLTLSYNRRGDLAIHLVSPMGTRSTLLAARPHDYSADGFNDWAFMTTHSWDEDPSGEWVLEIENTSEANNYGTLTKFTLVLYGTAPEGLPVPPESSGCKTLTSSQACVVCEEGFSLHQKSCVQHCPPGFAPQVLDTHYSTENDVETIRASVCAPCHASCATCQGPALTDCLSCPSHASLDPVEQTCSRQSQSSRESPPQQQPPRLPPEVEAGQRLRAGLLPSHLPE
row,Structure (SMILES),IC50 [nM]
1,CC(=O)N[C@@H](CCCNC(=N)N)C(=O)N[C@H](C(=O)N[C@@H](Cc1ccc(N=C(N)N)cc1)C(=O)NCc1ccc(C(=N)N)cc1F)C(C)C [Compound C],9
2,CC(=O)N[C@@H](CCCNC(=N)N)C(=O)N[C@H](C(=O)N[C@@H](Cc1ccc(N=C(N)N)cc1)C(=O)NCc1ccc(C(=N)N)c(F)c1)C(C)C [Compound B],3.7
3,CC(=O)N[C@@H](CCCNC(=N)N)C(=O)N[C@H](C(=O)N[C@@H](Cc1ccc(N=C(N)N)cc1)C(=O)NCc1ccc(C(=N)N)cc1)C(C)C [Compound A],7
4,CC(=O)N[C@@H](CCCNC(=N)N)C(=O)N[C@H](C(=O)N[C@@H](Cc1ccc(N=C(N)N)cc1)C(=O)NCc1ccc(/C(N)=N/O)cc1)C(C)C [Compound D],1200
5,CC(C)[C@H](NS(=O)(=O)Cc1ccc(C(=N)N)cc1)C(=O)N[C@@H](CCCNC(=N)N)C(=O)NCc1ccc(C(=N)N)cc1 [Compound E],300

# System: Dengue
# Assay: Dengue viral replication assay, secondary CPE/virus yield reduction (VYR)
# Format: cell-based
# Details: read-out: cellular activity against Dengue (EC90)
# Experimental: Primary cytopathic effect (CPE) reduction assay. Four-concentration CPE inhibition assays are performed. Confluent or near-confluent cell culture monolayers in 96-well disposable microplates are prepared. Cells are maintained in MEM or DMEM supplemented with FBS as required for each cell line. For antiviral assays the same medium is used but with FBS reduced to 2% or less and supplemented with 50 μg/ml gentamicin. The test compound is prepared at four log 10 final concentrations, usually 0.1, 1.0, 10, and 100 μg/ml or μM. The virus control and cell control wells are on every microplate. In parallel, a known active drug is tested as a positive control drug using the same method as is applied for test compounds. The positive control is tested with each test run. The assay is set up by first removing growth media from the 96-well plates of cells. Then the test compound is applied in 0.1 ml volume to wells at 2× concentration. […] The dye content in each well is quantified using a 96-well spectrophotometer at 540 nm wavelength. […]
# Secondary CPE/Virus yield reduction (VYR) assay. […] The incorporated dye content is quantified as described above. […] Compounds observed to be active above are further evaluated by VYR assay. […] Wells are scored for presence or absence of virus after distinct CPE (measured by neutral red uptake) is observed. […]
row,Structure (SMILES),EC90 [nM]
1,CC(=O)N[C@@H](CCCNC(=N)N)C(=O)N[C@H](C(=O)N[C@@H](Cc1ccc(N=C(N)N)cc1)C(=O)NCc1ccc(C(=N)N)cc1)C(C)C [Compound A],14000
